Assays:
[1] = biological target: BRM protein (Homo sapiens, UniProt P51531); test: Ki of compounds (Table 1; no method described); type: binding
[2] = tested on: H1299 cells (BRG1−/BRM+ cell line); test: Cell viability test, tetrazolium salt (MTT) method; type: cell-based; conditions: Homo sapiens, NCI-H1299, cultured 3-4 days with compound, OD 490 nm
Source text: A tetrazolium salt (MTT) method is used for determining the pharmacodynamics activity of the compounds of the present invention by using H1299 cells as the cell line, wherein the cell line has deletion of the BRG1 gene (BRG1−), and has no deletion of the BRM gene (BRM+). That is, the cells of the cell line cannot express a BRG1 protein, but can normally express a BRM protein. Small molecules that could prevent the BRM protein from interacting with the chromosomes in the cells, could prevent the BRM protein from exerting functions in the cells. According to the law of synergistic lethality, in a BRG1-gene-deleted cell, if the function of the BRM protein is blocked, cell death will be caused, thereby achieving the function that the small molecules kill cancer cells.
The specific steps of the test are as follows: • (1) different experimental cell lines are subcultured into a 96-well plate, and to prevent a marginal effect, the peripheries of the 96-well plate are added with 100 μL of PBS as a blank, wherein the cell line as used is H1299 cells (BRG1−/BRM+cell line); • (2) when the cells are in adherent growth to be 40-50%, different concentrations of drug molecules and DMSO as controls are added, the cells treated with the small molecules continue to be cultured for 3-4 days, and the medium is replaced by a medium supplemented with small molecules during the culture; • (3) after the 96-well plate treated with DMSO in the control group is full of the cells, each well is added with 20 μL of a MTT mother liquor (5 mg/mL); • (4) the cell plate is placed back into a […] incubator of 37° C. and continue to be incubated for 4 hours; • (5) the MTT solution is pipetted off, and each well is added with 150 μL DMSO; • (6) the 96-well plate is placed in a shaker at room temperature with protection from light for 15 min, until purple crystals are completely dissolved. • (7) The absorbance (OD) of each well is determined by a SpectraMax M5 multi-well plate reader (Molecular Devices, USA) at a wavelength of 490 nm.
According to a conventional detection method, the EC50 values of respective compounds (small molecules) are determined, and the results are summarized in Table 1.

Sequence of BRM protein (P51531 whole entry): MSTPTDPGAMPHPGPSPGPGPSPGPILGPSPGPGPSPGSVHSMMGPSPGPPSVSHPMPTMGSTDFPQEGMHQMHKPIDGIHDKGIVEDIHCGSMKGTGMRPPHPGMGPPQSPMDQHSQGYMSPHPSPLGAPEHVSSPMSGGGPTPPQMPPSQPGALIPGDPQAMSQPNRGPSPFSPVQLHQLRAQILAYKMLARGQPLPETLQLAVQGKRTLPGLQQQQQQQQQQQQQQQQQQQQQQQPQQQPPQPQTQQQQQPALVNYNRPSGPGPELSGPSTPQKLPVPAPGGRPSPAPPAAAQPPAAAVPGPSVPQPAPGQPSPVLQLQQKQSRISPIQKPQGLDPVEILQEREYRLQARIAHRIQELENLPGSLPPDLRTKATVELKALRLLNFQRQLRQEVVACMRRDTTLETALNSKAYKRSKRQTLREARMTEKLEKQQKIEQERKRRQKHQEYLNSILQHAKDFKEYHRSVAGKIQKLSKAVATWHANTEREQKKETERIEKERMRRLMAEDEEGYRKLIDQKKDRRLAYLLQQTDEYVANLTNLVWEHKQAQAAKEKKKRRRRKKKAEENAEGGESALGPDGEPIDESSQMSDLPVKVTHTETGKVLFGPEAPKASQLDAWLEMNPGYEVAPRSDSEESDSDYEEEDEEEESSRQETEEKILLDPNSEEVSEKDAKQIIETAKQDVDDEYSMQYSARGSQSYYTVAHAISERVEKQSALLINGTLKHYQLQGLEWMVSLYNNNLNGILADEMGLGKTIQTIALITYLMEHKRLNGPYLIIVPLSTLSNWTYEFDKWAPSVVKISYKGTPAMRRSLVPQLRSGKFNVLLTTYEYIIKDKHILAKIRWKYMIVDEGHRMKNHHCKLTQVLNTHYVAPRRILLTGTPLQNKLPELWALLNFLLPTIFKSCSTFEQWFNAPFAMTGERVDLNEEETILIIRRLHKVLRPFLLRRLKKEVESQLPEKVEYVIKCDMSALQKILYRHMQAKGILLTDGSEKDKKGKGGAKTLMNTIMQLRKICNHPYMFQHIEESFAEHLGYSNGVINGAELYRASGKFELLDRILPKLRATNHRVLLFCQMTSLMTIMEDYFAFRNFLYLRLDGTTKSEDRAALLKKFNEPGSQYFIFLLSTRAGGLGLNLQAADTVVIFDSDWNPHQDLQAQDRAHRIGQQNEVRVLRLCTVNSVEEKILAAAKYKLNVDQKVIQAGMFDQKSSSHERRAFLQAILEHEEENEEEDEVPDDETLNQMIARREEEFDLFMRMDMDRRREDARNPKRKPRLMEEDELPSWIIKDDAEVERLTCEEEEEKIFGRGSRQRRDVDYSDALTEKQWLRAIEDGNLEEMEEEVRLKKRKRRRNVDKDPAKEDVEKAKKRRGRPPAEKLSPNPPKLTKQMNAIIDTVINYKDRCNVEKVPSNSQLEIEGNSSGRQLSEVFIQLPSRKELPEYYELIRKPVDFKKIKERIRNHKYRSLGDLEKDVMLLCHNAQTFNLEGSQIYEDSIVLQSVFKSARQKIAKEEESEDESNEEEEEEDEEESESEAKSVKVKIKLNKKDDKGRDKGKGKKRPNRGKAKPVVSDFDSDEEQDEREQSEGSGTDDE

Row | Ki [1] [µM] | EC50 [2] [µM] | SMILES
1 | 1.1 | > 20 | O=C(NCCc1ccc(O)cc1)c1cc(-c2cc(F)ccc2O)n[nH]1 [BRM2-137]
2 | 1.4 | 7.6 | CN1CCN(c2ccccc2-c2cc(-c3cc(F)ccc3O)n[nH]2)CC1 [BRM2-34]
3 | 2 | > 20 | COc1cccc(C(=O)Nc2ccc(-c3cc(-c4cc(F)ccc4O)n[nH]3)cc2)c1OC [BRM2-113]
4 | 0.6 | 1.5 | O=C(Nc1ccc(-c2cc(-c3cc(F)ccc3O)n[nH]2)cc1)c1cnccn1 [BRM2-124]
5 | 6.8 | > 20 | O=C(Nc1cc(-c2cc(F)ccc2O)n[nH]1)c1ccccc1 [BRM2-162]
6 | 2.7 | 15 | Oc1ccc(F)cc1-c1cc(-c2ccc(N3CCCCC3)cc2)[nH]n1 [BRM2-33]
7 | 2 | 10.5 | CS(=O)(=O)c1ccc(-c2ccc(-c3cc(-c4cc(F)ccc4O)n[nH]3)cc2)cc1 [BRM2-30]
8 | 6.9 | > 20 | O=C(Cc1ccc(O)cc1)Nc1cc(-c2cc(F)ccc2O)n[nH]1 [BRM2-164]
9 | 3 | 18 | O=C(NCc1ccc(F)cc1)c1cc(-c2cc(F)ccc2O)n[nH]1 [BRM2-136]
10 | 3 | 11.4 | O=C(Nc1ccc(-c2cc(-c3cc(F)ccc3O)n[nH]2)cc1)c1cccc(F)c1F [BRM2-114]
11 | 0.9 | 1.7 | CN1CCCN(c2ccc(-c3cc(-c4cc(F)ccc4O)n[nH]3)cc2)CC1 [BRM2-31]
12 | 0.4 | 1.7 | NC(=O)CCC(NC(=O)c1cc(-c2cc(F)ccc2O)n[nH]1)C(=O)N1CCOCC1 (stereo not shown) [BRM2-156]
13 | 0.8 | 4.3 | O=C(NCCc1ccc(F)cc1)c1cc(-c2cc(F)ccc2O)n[nH]1 [BRM2-157]
14 | 3.2 | 18.2 | Nc1cc(-c2cc(F)ccc2O)n[nH]1 [BRM2-160]
15 | 4.1 | > 20 | O=C(Nc1ccc(-c2cc(-c3cc(F)ccc3O)n[nH]2)cc1)c1c(F)cccc1F [BRM2-105]
16 | 2.3 | 12 | Nc1cccc(O)c1-c1cc(-c2ccc(Br)cc2)[nH]n1 [BRM2-6]
17 | 4.6 | > 20 | CCN(Cc1ccccc1)C(=O)c1cc(-c2cc(F)ccc2O)n[nH]1 [BRM2-144]
18 | 2 | > 20 | O=C(NCc1ccc(O)cc1)c1cc(-c2cc(F)ccc2O)n[nH]1 [BRM2-138]
19 | 0.2 | 0.9 | O=C(Nc1ccc(-c2cc(-c3cc(F)ccc3O)n[nH]2)cc1)C12CC3CC(CC(C3)C1)C2 [BRM2-106]
20 | 1.8 | 9.3 | CN1CCN(c2cccc(-c3cc(-c4cc(F)ccc4O)n[nH]3)c2)CC1 [BRM2-39]
21 | 0.8 | 3.8 | Cc1ccc(C(=O)Nc2ccc(-c3cc(-c4cc(F)ccc4O)n[nH]3)cc2)cn1 [BRM2-111]

Row | Ki [1] [µM] | EC50 [2] [µM] | SMILES
22 | 1.5 | 3.3 | Nc1c(F)ccc(O)c1-c1cc(-c2ccc(-c3ccc(F)cc3)cc2)[nH]n1 [BRM2-22]
23 | 3.7 | 5.8 | CN1CCN(c2ccc(-c3cc(-c4cc(F)ccc4O)n[nH]3)cc2)CC1 [BRM2-32]
24 | 0.6 | 2.4 | O=C(Nc1ccc(-c2cc(-c3cc(F)ccc3O)n[nH]2)cc1)c1cccnc1 [BRM2-121]
25 | 1.8 | 6.7 | Nc1c(F)ccc(O)c1-c1cc(-c2ccc(Br)cc2)[nH]n1 [BRM2-4]
26 | 1.7 | 7.3 | O=C(Nc1cc(-c2cc(F)ccc2O)n[nH]1)c1cnccn1 [BRM2-166]
27 | 1.6 | > 20 | Cc1ccccc1-c1cc(-c2cc(F)ccc2O)n[nH]1 [BRM2-11]
28 | 2.8 | 17.3 | CN(Cc1ccccc1)C(=O)c1cc(-c2cc(F)ccc2O)n[nH]1 [BRM2-143]
29 | 1.2 | 8.9 | COC(=O)C(CCS(C)(=O)=O)NC(=O)c1cc(-c2cc(F)ccc2O)n[nH]1 (stereo not shown) [BRM2-149]
30 | 0.5 | 2.5 | COC(=O)C(Cc1cnc[nH]1)NC(=O)c1cc(-c2cc(F)ccc2O)n[nH]1 (stereo not shown) [BRM2-152]
31 | 2.7 | 13.5 | Oc1ccc(F)cc1-c1cc(N2CC3CC2CN3c2ccccn2)[nH]n1 (stereo not shown) [BRM2-41]
32 | 2.2 | 8.5 | CC(C)(C)c1ccc(-c2cc(-c3cc(F)ccc3O)n[nH]2)cc1 [BRM2-8]
33 | 2.5 | 13.4 | O=C(Cc1ccc(F)cc1)Nc1cc(-c2cc(F)ccc2O)n[nH]1 [BRM2-168]
34 | 1.8 | 10.3 | COC(=O)C1CCCN1C(=O)c1cc(-c2cc(F)ccc2O)n[nH]1 (stereo not shown) [BRM2-150]
35 | 0.9 | 6.5 | O=C(Nc1ccc(-c2cc(-c3cc(F)ccc3O)n[nH]2)cc1)c1ccccn1 [BRM2-112]
36 | 4.6 | > 20 | CCc1ccc(-c2cc(-c3cc(F)ccc3O)n[nH]2)cc1 [BRM2-9]
37 | 4.4 | 17.2 | O=C(Nc1cc(-c2cc(F)ccc2O)n[nH]1)c1ccc(O)cc1 [BRM2-163]
38 | 5.3 | > 20 | CC(C)N(Cc1ccccc1)C(=O)c1cc(-c2cc(F)ccc2O)n[nH]1 [BRM2-145]
39 | 2.7 | > 20 | Cc1cccc(C)c1-c1ccc(-c2cc(-c3cc(F)ccc3O)n[nH]2)cc1 [BRM2-27]
40 | 2 | 14.7 | O=C(NCCc1ccc(Cl)cc1)c1cc(-c2cc(F)ccc2O)n[nH]1 [BRM2-140]
41 | 0.7 | 2.8 | O=C(Nc1ccc(-c2cc(-c3cc(F)ccc3O)n[nH]2)cc1)c1ccnc(Cl)c1 [BRM2-123]
